# From ChEMBL document CHEMBL3885881, “DrugMatrix”
# Organism: Rattus norvegicus
# Assay: DrugMatrix - Regimen: Daily Repeat
# Type: toxicity, organism-based, Sprague-Dawley
# Design: regimen Daily Repeat, gender Male, age 6-8 weeks
# Details: in vivo, po, route oral GAVAGE, vehicle .5 % CMC; for ABSOLUTE BASOPHIL / ABSOLUTE EOSINOPHIL / ABSOLUTE LYMPHOCYTE / ABSOLUTE MONOCYTE / ABSOLUTE SEGMENTED NEUTROPHIL / BASOPHIL / EOSINOPHIL / ERYTHROCYTE COUNT / HEMATOCRIT / HEMOGLOBIN / LEUKOCYTE COUNT / LYMPHOCYTE / MEAN CORPUSCULAR HEMOGLOBIN / MEAN CORPUSCULAR HEMOGLOBIN CONCENTRATION / MEAN CORPUSCULAR VOLUME / MONOCYTE / NEUTROPHIL / NUCLEATED RED BLOOD CELLS / PLATELET COUNT: tissue Blood; for ALANINE AMINOTRANSFERASE / ALBUMIN / ALKALINE PHOSPHATASE / ASPARTATE AMINOTRANSFERASE / BLOOD UREA NITROGEN / CARBON DIOXIDE / CHLORIDE / CHOLESTEROL / CREATINE PHOSPHOKINASE / CREATININE / GLUCOSE / LACTATE DEHYDROGENASE / LIPASE / PHOSPHORUS / POTASSIUM / SODIUM / TOTAL BILIRUBIN / TOTAL PROTEIN / URIC ACID: tissue Plasma
# [1] = 100 mg/kg, 72 h, dose level Low, time 3 day
# [2] = 100 mg/kg, 120 h, dose level Low, time 5 day
# [3] = 1500 mg/kg, 72 h, dose level High, time 3 day
# [4] = 1500 mg/kg, 120 h, dose level High, time 5 day
smiles,measurement,setting,value
CC(C)Oc1ccc2c(=O)c(-c3ccccc3)coc2c1 [IPRIFLAVONE],ABSOLUTE BASOPHIL,[1],0 CELLS/uL
same,ABSOLUTE EOSINOPHIL,[1],99.33 CELLS/uL
same,ABSOLUTE LYMPHOCYTE,[1],13635.33 CELLS/uL
same,ABSOLUTE MONOCYTE,[1],415.67 CELLS/uL
same,ABSOLUTE SEGMENTED NEUTROPHIL,[1],2916.33 CELLS/uL
same,BASOPHIL,[1],0%
same,EOSINOPHIL,[1],0.67%
same,ERYTHROCYTE COUNT,[1],5.96 x10E6/uL
same,HEMATOCRIT,[1],37.1%
same,HEMOGLOBIN,[1],14.43 G/DL
same,LEUKOCYTE COUNT,[1],17.07 x10E3/uL
same,LYMPHOCYTE,[1],80.33%
same,MEAN CORPUSCULAR HEMOGLOBIN,[1],24.23 pg
same,MEAN CORPUSCULAR HEMOGLOBIN CONCENTRATION,[1],38.93 G/DL
same,MEAN CORPUSCULAR VOLUME,[1],62.3 fL
same,MONOCYTE,[1],2.33%
same,NEUTROPHIL,[1],16.67%
same,NUCLEATED RED BLOOD CELLS,[1],0 /100WBC
same,PLATELET COUNT,[1],1359 x10E3/uL
same,ALANINE AMINOTRANSFERASE,[1],44 u/L
same,ALBUMIN,[1],4.53 G/DL
same,ALKALINE PHOSPHATASE,[1],342.67 u/L
same,ASPARTATE AMINOTRANSFERASE,[1],79.33 u/L
same,BLOOD UREA NITROGEN,[1],19.67 mg/dL
same,CARBON DIOXIDE,[1],24.33 mmol/L
same,CHLORIDE,[1],97.67 MEQ/L
same,CHOLESTEROL,[1],61.67 mg/dL
same,CREATINE PHOSPHOKINASE,[1],241.33 u/L
same,CREATININE,[1],0.23 mg/dL
same,GLUCOSE,[1],153.33 mg/dL
same,LACTATE DEHYDROGENASE,[1],129.33 u/L
same,LIPASE,[1],9.67 u/L
same,PHOSPHORUS,[1],11.17 mg/dL
same,POTASSIUM,[1],7.3 MEQ/L
same,SODIUM,[1],139.57 MEQ/L
same,TOTAL BILIRUBIN,[1],0.23 mg/dL
same,TOTAL PROTEIN,[1],6.17 G/DL
same,URIC ACID,[1],2.23 mg/dL
same,ABSOLUTE BASOPHIL,[2],0 CELLS/uL
same,ABSOLUTE EOSINOPHIL,[2],57.67 CELLS/uL
same,ABSOLUTE LYMPHOCYTE,[2],12897.67 CELLS/uL
same,ABSOLUTE MONOCYTE,[2],315.33 CELLS/uL
same,ABSOLUTE SEGMENTED NEUTROPHIL,[2],1196 CELLS/uL
same,BASOPHIL,[2],0%
same,EOSINOPHIL,[2],0.33%
same,ERYTHROCYTE COUNT,[2],6.06 x10E6/uL
same,HEMATOCRIT,[2],36.3%
same,HEMOGLOBIN,[2],14.4 G/DL
same,LEUKOCYTE COUNT,[2],14.47 x10E3/uL
same,LYMPHOCYTE,[2],89%
same,MEAN CORPUSCULAR HEMOGLOBIN,[2],23.8 pg
same,MEAN CORPUSCULAR HEMOGLOBIN CONCENTRATION,[2],39.67 G/DL
same,MEAN CORPUSCULAR VOLUME,[2],59.93 fL
same,MONOCYTE,[2],2%
same,NEUTROPHIL,[2],8.67%
same,NUCLEATED RED BLOOD CELLS,[2],0.33 /100WBC
same,PLATELET COUNT,[2],1112 x10E3/uL
same,ALANINE AMINOTRANSFERASE,[2],47 u/L
same,ALBUMIN,[2],4.3 G/DL
same,ALKALINE PHOSPHATASE,[2],297.33 u/L
same,ASPARTATE AMINOTRANSFERASE,[2],91.33 u/L
same,BLOOD UREA NITROGEN,[2],15 mg/dL
same,CARBON DIOXIDE,[2],25.33 mmol/L
same,CHLORIDE,[2],100.67 MEQ/L
same,CHOLESTEROL,[2],64 mg/dL
same,CREATINE PHOSPHOKINASE,[2],318.67 u/L
same,CREATININE,[2],0.19 mg/dL
same,GLUCOSE,[2],158.67 mg/dL
same,LACTATE DEHYDROGENASE,[2],474.67 u/L
same,LIPASE,[2],9 u/L
same,PHOSPHORUS,[2],11.83 mg/dL
same,POTASSIUM,[2],6.46 MEQ/L
same,SODIUM,[2],142.8 MEQ/L
same,TOTAL BILIRUBIN,[2],0.13 mg/dL
same,TOTAL PROTEIN,[2],5.93 G/DL
same,URIC ACID,[2],1.7 mg/dL
same,ABSOLUTE BASOPHIL,[3],0 CELLS/uL
same,ABSOLUTE EOSINOPHIL,[3],0 CELLS/uL
same,ABSOLUTE LYMPHOCYTE,[3],12351.67 CELLS/uL
same,ABSOLUTE MONOCYTE,[3],95 CELLS/uL
same,ABSOLUTE SEGMENTED NEUTROPHIL,[3],2086.67 CELLS/uL
same,BASOPHIL,[3],0%
same,EOSINOPHIL,[3],0%
same,ERYTHROCYTE COUNT,[3],5.63 x10E6/uL
same,HEMATOCRIT,[3],34.7%
same,HEMOGLOBIN,[3],13.77 G/DL
same,LEUKOCYTE COUNT,[3],14.53 x10E3/uL
same,LYMPHOCYTE,[3],85%
same,MEAN CORPUSCULAR HEMOGLOBIN,[3],24.47 pg
same,MEAN CORPUSCULAR HEMOGLOBIN CONCENTRATION,[3],39.67 G/DL
same,MEAN CORPUSCULAR VOLUME,[3],61.63 fL
same,MONOCYTE,[3],0.67%
same,NEUTROPHIL,[3],14.33%
same,NUCLEATED RED BLOOD CELLS,[3],0.33 /100WBC
same,PLATELET COUNT,[3],1247.33 x10E3/uL
same,ALANINE AMINOTRANSFERASE,[3],44.33 u/L
same,ALBUMIN,[3],4.3 G/DL
same,ALKALINE PHOSPHATASE,[3],325 u/L
same,ASPARTATE AMINOTRANSFERASE,[3],80.33 u/L
same,BLOOD UREA NITROGEN,[3],15.33 mg/dL
same,CARBON DIOXIDE,[3],27 mmol/L
same,CHLORIDE,[3],101 MEQ/L
same,CHOLESTEROL,[3],68.67 mg/dL
same,CREATINE PHOSPHOKINASE,[3],256.33 u/L
same,CREATININE,[3],0.15 mg/dL
same,GLUCOSE,[3],149.33 mg/dL
same,LACTATE DEHYDROGENASE,[3],181 u/L
same,LIPASE,[3],9.33 u/L
same,PHOSPHORUS,[3],12.3 mg/dL
same,POTASSIUM,[3],6.1 MEQ/L
same,SODIUM,[3],143.17 MEQ/L
same,TOTAL BILIRUBIN,[3],0.1 mg/dL
same,TOTAL PROTEIN,[3],5.67 G/DL
same,URIC ACID,[3],1.53 mg/dL
same,ABSOLUTE BASOPHIL,[4],0 CELLS/uL
same,ABSOLUTE EOSINOPHIL,[4],0 CELLS/uL
same,ABSOLUTE LYMPHOCYTE,[4],12219.33 CELLS/uL
same,ABSOLUTE MONOCYTE,[4],47.33 CELLS/uL
same,ABSOLUTE SEGMENTED NEUTROPHIL,[4],1100 CELLS/uL
same,BASOPHIL,[4],0%
same,EOSINOPHIL,[4],0%
same,ERYTHROCYTE COUNT,[4],5.81 x10E6/uL
same,HEMATOCRIT,[4],35.17%
same,HEMOGLOBIN,[4],14.03 G/DL
same,LEUKOCYTE COUNT,[4],13.37 x10E3/uL
same,LYMPHOCYTE,[4],91.33%
same,MEAN CORPUSCULAR HEMOGLOBIN,[4],24.23 pg
same,MEAN CORPUSCULAR HEMOGLOBIN CONCENTRATION,[4],39.9 G/DL
same,MEAN CORPUSCULAR VOLUME,[4],60.63 fL
same,MONOCYTE,[4],0.33%
same,NEUTROPHIL,[4],8.33%
same,NUCLEATED RED BLOOD CELLS,[4],0 /100WBC
same,PLATELET COUNT,[4],1215 x10E3/uL
same,ALANINE AMINOTRANSFERASE,[4],48 u/L
same,ALBUMIN,[4],4.47 G/DL
same,ALKALINE PHOSPHATASE,[4],278.33 u/L
same,ASPARTATE AMINOTRANSFERASE,[4],72.33 u/L
same,BLOOD UREA NITROGEN,[4],14.67 mg/dL
same,CARBON DIOXIDE,[4],25.67 mmol/L
same,CHLORIDE,[4],102.33 MEQ/L
same,CHOLESTEROL,[4],53 mg/dL
same,CREATINE PHOSPHOKINASE,[4],231 u/L
same,CREATININE,[4],0.16 mg/dL
same,GLUCOSE,[4],153 mg/dL
same,LACTATE DEHYDROGENASE,[4],157.33 u/L
same,LIPASE,[4],9.67 u/L
same,PHOSPHORUS,[4],11.6 mg/dL
same,POTASSIUM,[4],6.76 MEQ/L
same,SODIUM,[4],145.4 MEQ/L
same,TOTAL BILIRUBIN,[4],0.2 mg/dL
same,TOTAL PROTEIN,[4],6.17 G/DL
same,URIC ACID,[4],1.9 mg/dL
